Measurements published in ChEMBL document CHEMBL1153496, “SAR studies on azasterols as potential anti-trypanosomal and anti-leishmanial agents” (Bioorg Med Chem, 2009).

How the values were obtained:
[1] = test system: Trypanosoma brucei rhodesiense; test: Antitrypanosomal activity against Trypanosoma brucei rhodesiense blood stream form; format: functional, organism-based
Trypanosoma cruzi = test: Antitrypanosomal activity against Trypanosoma cruzi amastigotes; format: functional, organism-based
Leishmania donovani = test: Antitrypanosomal activity against Leishmania donovani amastigotes; format: functional, organism-based
[2] = Cytotoxicity against rat L6 cells; format: cell-based; details: read-out: TD50 (the source's name)
[3] = Lipophilicity, log D of the compound; format: physicochemical; details: octanol/water
KB = test: Cytotoxicity against human KB cells; format: functional, cell-based
[4] = Dissociation constant, pKa of the compound; format: physicochemical
[5] = Stability assessed as ionization at pH 7.4; format: physicochemical
[6] = Inhibition of Saccharomyces cerevisiae SMT

In the case of `CC(=O)O[C@H]1CC[C@@]2(C)C(=CC[C@H]3[C@@H]4CC[C@H]([C@H](C)CCC(=O)NCCCCCC(=O)O)[C@@]4(C)CC[C@@H]32)C1`, the EC50 [1] is reported as 56 µM, the EC50 (Trypanosoma cruzi) is reported as 41.9 µM and the EC50 (Leishmania donovani) is reported as 2 µM. It also gave a CC50 [2] of 63 µM.

In the case of `COC(=O)CCCNC[C@@H](C)[C@H]1CC[C@H]2[C@@H]3CC=C4C[C@@H](OC(=O)c5cccnc5)CC[C@]4(C)[C@H]3CC[C@]12C`, the EC50 [1] is reported as 0.8 µM, the EC50 (Trypanosoma cruzi) is reported as 2.51 µM and the EC50 (Leishmania donovani) is reported as 13.7 µM. For the same compound, the CC50 [2] was 9.8 µM and the logD [3] was 5.2.

For `COC(=O)CCCNC[C@@H](C)[C@H]1CC[C@H]2[C@@H]3CC=C4C[C@@H](OC(C)=O)CC[C@]4(C)[C@H]3CC[C@]12C`, the EC50 [1] was 0.012 µM, the EC50 (Trypanosoma cruzi) was 24.7 µM and the EC50 (Leishmania donovani) was 19.2 µM. It also gave an EC50 (KB) of 19.2 µM.

For `COC(=O)CCCNC[C@@H](C)[C@H]1CC[C@H]2[C@@H]3CC=C4C[C@@H](OC(=O)CN(C)C)CC[C@]4(C)[C@H]3CC[C@]12C`, the EC50 [1] was 6.2 µM, the EC50 (Trypanosoma cruzi) was 11.6 µM and the EC50 (Leishmania donovani) was 18.5 µM. For the same compound, the CC50 [2] was 24 µM, the logD [3] was 4.4 and the pKa [4] was 7.1. The Activity [5] was 34%.

In the case of `CC(=O)O[C@H]1CC[C@@]2(C)C(=CC[C@H]3[C@@H]4CC[C@H]([C@H](C)CCCNCCCCCC(=O)O)[C@@]4(C)CC[C@@H]32)C1`, the EC50 [1] is reported as 11.2 µM, the EC50 (Trypanosoma cruzi) is reported as 28.9 µM and the EC50 (Leishmania donovani) is reported as 11.4 µM. For the same compound, the CC50 [2] was 56 µM.

Work on `COC(=O)CCCCCNC(=O)CC[C@@H](C)[C@H]1CC[C@H]2[C@@H]3CC=C4C[C@@H](OC(C)=O)CC[C@]4(C)[C@H]3CC[C@]12C` yielded an EC50 [1] of 14.6 µM, an EC50 (Trypanosoma cruzi) of 23 µM and an EC50 (Leishmania donovani) of 1.6 µM. It also gave a CC50 [2] of over 165 µM.

`CCC(=O)O[C@H]1CC[C@@]2(C)C(=CC[C@H]3[C@@H]4CC[C@H]([C@H](C)CNCCCC(=O)OC)[C@@]4(C)CC[C@@H]32)C1` showed an EC50 [1] of 0.8 µM, an EC50 (Trypanosoma cruzi) of 7.6 µM and an EC50 (Leishmania donovani) of 12.1 µM. The CC50 [2] was 21.9 µM and the logD [3] was 5.1.

Work on `CCCC(=O)O[C@H]1CC[C@@]2(C)C(=CC[C@H]3[C@@H]4CC[C@H]([C@H](C)CNCCCC(=O)OC)[C@@]4(C)CC[C@@H]32)C1` yielded an EC50 [1] of 1.6 µM, an EC50 (Trypanosoma cruzi) of 1.7 µM and an EC50 (Leishmania donovani) of 6.8 µM. It also gave a CC50 [2] of 30.7 µM and a logD [3] of 5.6.

Compound `COC(=O)CCCNC[C@@H](C)[C@H]1CC[C@H]2[C@@H]3CC=C4C[C@@H](OC(=O)CC(C)C)CC[C@]4(C)[C@H]3CC[C@]12C` has an EC50 [1] of 3.9 µM, an EC50 (Trypanosoma cruzi) of 10.8 µM and an EC50 (Leishmania donovani) of 4.9 µM. It also gave a CC50 [2] of 33.2 µM and a logD [3] of 6.

Compound `COC(=O)CCCCCNCCC[C@@H](C)[C@H]1CC[C@H]2[C@@H]3CC=C4C[C@@H](OC(C)=O)CC[C@]4(C)[C@H]3CC[C@]12C` has an EC50 [1] of 2 µM, an EC50 (Trypanosoma cruzi) of 11.1 µM and an EC50 (Leishmania donovani) of 11.7 µM. It also gave a CC50 [2] of 7.4 µM.

Work on `COC(=O)CCCNCCC[C@@H](C)[C@H]1CC[C@H]2[C@@H]3CC=C4C[C@@H](OC(C)=O)CC[C@]4(C)[C@H]3CC[C@]12C` yielded an EC50 [1] of 1.8 µM, an EC50 (Trypanosoma cruzi) of 7.4 µM and an EC50 (Leishmania donovani) of 23.8 µM. It also gave a CC50 [2] of 5.8 µM.

`COC(=O)CCCNC[C@@H](C)[C@H]1CC[C@H]2[C@@H]3CC=C4C[C@@H](OC(=O)CCC(=O)O)CC[C@]4(C)[C@H]3CC[C@]12C` gave an EC50 [1] of 9.8 µM, an EC50 (Trypanosoma cruzi) of 13.7 µM and an EC50 (Leishmania donovani) of 35.7 µM. For the same compound, the CC50 [2] was 76.7 µM, the logD [3] was 4.1 and the pKa [4] was 4.4. The Activity [5] was 99%.

For `C[C@H](CCCN(C)C)[C@H]1CC[C@H]2C3=C(CC[C@]12C)[C@@]1(C)CC[C@H](O)C[C@@H]1CC3`, the IC50 [6] was 0.08 µM.

Work on `CC(=O)O[C@H]1CC[C@@]2(C)C(=CC[C@H]3[C@@H]4CC[C@H]([C@H](C)CCCN5CCCC5=O)[C@@]4(C)CC[C@@H]32)C1` yielded an EC50 [1] of 38.3 µM, an EC50 (Trypanosoma cruzi) of 25 µM and an EC50 (Leishmania donovani) of 13.9 µM. The CC50 [2] was 2.5 µM.

Compound `CC(=O)O[C@H]1CC[C@@]2(C)C(=CC[C@H]3[C@@H]4CC[C@H]([C@H](C)CCC(=O)N(C)C)[C@@]4(C)CC[C@@H]32)C1` has an EC50 [1] of 21.7 µM, an EC50 (Trypanosoma cruzi) of 28.2 µM and an EC50 (Leishmania donovani) of 24.6 µM. For the same compound, the CC50 [2] was over 202 µM.

`COC(=O)CCCNC[C@@H](C)[C@H]1CC[C@H]2[C@@H]3CC=C4C[C@@H](OC(=O)C(C)(C)C)CC[C@]4(C)[C@H]3CC[C@]12C` showed an EC50 [1] of 2.2 µM, an EC50 (Trypanosoma cruzi) of 9.7 µM and an EC50 (Leishmania donovani) of 11.3 µM. For the same compound, the CC50 [2] was 11.1 µM and the logD [3] was 5.8.

`COC(=O)CCCNC(=O)CC[C@@H](C)[C@H]1CC[C@H]2[C@@H]3CC=C4C[C@@H](OC(C)=O)CC[C@]4(C)[C@H]3CC[C@]12C` gave an EC50 [1] of 18.4 µM, an EC50 (Trypanosoma cruzi) of 19.7 µM and an EC50 (Leishmania donovani) of 3.1 µM. It also gave a CC50 [2] of over 174 µM.
